Laboratory results from patent US10800816B2 (Baxalta GmbH, priority 2012, dated 2020).
Where a SMILES comes first, the peptide text is derived from it. [ ]: non-standard residue; d: D form. The star is where a group is joined. Succinimide(1-Et,3-yl) = CCN1C(=O)CC(*)C1=O; Tle = CC(C)(C)[C@H](N)C(=O)O; Hexanoyl = CCCCCC(=O)*; Aib = CC(C)(N)C(=O)O; Acm = CC(=O)NC*

Assays:
[1] = test system: FVIII-inhibited whole blood; assay: Rotation thromboelastography (ROTEM) in whole blood; set-up: species or system human; conditions: for EC50: FVIII-inhibited, read-out: EC50, global hemostatic parameters; for coagulation parameters: Hem A / FVIII-inhibited human whole blood
Method: Continuous visco-elastic assessment of human whole blood clot formation and firmness was performed by rotation thromboelastography with whole blood preparations in the presence or absence of peptides. […] Test samples were prepared by dissolving quantities of peptides in either DMSO or HEPES buffered saline (with or without 0.1% Tween 80).
Recordings were made using a ROTEM thromboelastography coagulation analyzer (Pentapharm, Munich, Germany) at 37° C. Briefly, blood is added into a disposable cuvette in a heated cuvette holder. A disposable pin (sensor) is fixed on the tip of a rotating axis. The axis is guided by a high precision ball bearing system and rotates back and forth. The axis is connected with a spring for the measurement of elasticity. The exact position of the axis is detected by the reflection of light on a small mirror on the axis. The loss of elasticity when the sample clots leads to a change in the rotation of the axis. The data obtained are computer analyzed and visualized in a thromboelastogram. […] An elasticity of approximately zero is observed before clot formation begins. Mirror image traces above and below the zero line indicate the effect of clot formation on the rotation of the axis.
The analytical set-up was as follows: to 20 μL of test sample or control, 300 μL of pre-warmed (37° C.) CTI treated citrated whole blood was added, followed by 20 μL of a 1:15 dilution of TF PRP reagent containing recombinant human tissue factor (rTF, 3 pM) (TS40, Thrombinoscope BV, Maastricht, The Netherlands). Coagulation was initiated by the addition of 20 μ200 mM CaCl2 (star-TEM®, Pentapharm, Munich, Germany) and recordings were allowed to proceed for at least 120 min. The final concentration of rTF in the assay was 11 or 44 fM.
The thromboelastographic parameters of clotting time (CT), clot formation time (CFT) and maximum clot firmness (MCF) were recorded in accordance with the manufacturer's instructions. CT is defined as the time from the start of measurement to the start of clot formation. CFT is defined as the time from the start of clot formation until an amplitude of 20 mm is reached. MCF is the maximum difference in amplitude between the two traces during the assay. The first derivative of the data of the thromboelastogram are plotted to obtain a graph of velocity (mm/s) against time (s). From this graph, the maximum velocity (maxV) is determined. The time at which the maximum velocity is obtained (maxV-t) is also determined.
This example describes a method for assessing clot formation in whole blood using rotation thromboelastography (ROTEM). The assay was performed as described in Example 8. The analytical set-up was as follows: 300 μL of pre-warmed (37° C.) CTI treated citrated whole blood was added to a peptide sample (10, 100, 1000 nM final assay concentration) or a control, followed by addition of a 1:15 dilution of TF PRP reagent containing recombinant human tissue factor (rTF, 3 pM) (TS40, Thrombinoscope BV, Maastricht, The Netherlands). In certain experiments, exogenous full length TFPI (flTFPI) at final concentrations of 2 or 10 nM was added to simulate flTFPI plasma levels of up to 50-fold over normal. Coagulation was initiated by the addition of 20 μL 200 mM CaCl2 (star-TEM®, Pentapharm, Munich, Germany) and recordings were allowed to proceed for at least 120 min. The final concentration of rTF in the assay was 44 fM. The thromboelastographic parameters of clotting time (CT), clot formation time (CFT) and maximum clot firmness (MCF) were recorded in accordance with the manufacturer's instructions. CT is defined as the time from the start of measurement to the start of clot formation. CFT is defined as the time from the start of clot formation until an amplitude of 20 mm is reached. MCF is the maximum difference in amplitude between the two traces during the assay.

FIGURE 78J = assay: FIGURE 78J
Excerpt: Table printed on a drawing sheet, FIGURE 78J
First reader's note: Part of a table series (FIGS. 78A-78AA); single-measurement columns hold several replicate values per cell, joined by blanks, next to the mean column (the first INHIBITION [%] column holds the mean).

TFPI [2] = assay: IC50 ELISA | Mean IC50 [nM]
Excerpt: Table printed on a drawing sheet, FIGURE 78Z
Head of the field: IC50 ELISA | Mean IC50 [nM]
First copying reader's note: Continued table: the first body row (45.67) belongs to a compound on the preceding sheet, the last row probably continues on the next sheet, and cells with several values list single replicates.

FIGURE 78AA = assay: FIGURE 78AA
Excerpt: Table printed on a drawing sheet, FIGURE 78AA
First reader's note: Continued from the previous sheet: the first body row (73.35) belongs to a compound listed there; cells with several numbers hold the single replicate values behind the mean.

FIGURE 78K = assay: FIGURE 78K
Excerpt: Table printed on a drawing sheet, FIGURE 78K

TFPI [3] = assay: Progress Curves of Inhibition of FXa | % Inhibit (2.5μM)
Method: Head of the field: Progress Curves of Inhibition of FXa | % Inhibit (2.5μM)

CSCC[C@@H]1NC(=O)[C@H](C)NC(=O)[C@@H](NC(=O)[C@H](Cc2c[nH]cn2)NC(=O)[C@H](Cc2c[nH]c3ccccc23)NC(=O)[C@H](CCCCN)NC(=O)[C@H](Cc2ccc(O)cc2)NC(=O)[C@H](Cc2ccc(O)cc2)NC(=O)[C@H](CO)NC(C)=O)CSSC[C@@H](C(=O)N[C@H](C(=O)N[C@@H](Cc2c[nH]c3ccccc23)C(=O)N[C@H](C(=O)N[C@@H](CCCCN)C(=O)N[C@@H](Cc2ccccc2)C(N)=O)C(C)C)C(C)C)NC(=O)[C@H]([C@@H](C)O)NC(=O)[C@H](CCSC)NC(=O)[C@H]([C@@H](C)O)NC(=O)CNC(=O)[C@H](CCCCN)NC(=O)[C@H](CCSC)NC(=O)[C@H](CC(=O)O)NC(=O)[C@H](CCCNC(=N)N)NC1=O [JBT1837]
EC50 [1]: 4 nM | coagulation parameters [1]: corrected blood coagulation parameters in FVIII-inhibited blood

CCN1C(=O)CC(SC[C@H](NC(=O)[C@H](CC(C)C)NC(=O)[C@H](CCCCN)NC(=O)[C@H](C)NC(=O)C(C)(C)NC(=O)[C@H](CC(C)C)NC(=O)[C@H](CCCNC(=N)N)NC(=O)[C@H](CCC(=O)O)NC(=O)[C@H](Cc2ccccc2)NC(=O)[C@H](Cc2ccc(O)cc2)NC(=O)CNC(=O)[C@H](CC(=O)O)NC(=O)[C@@H](NC(=O)[C@H](Cc2c[nH]cn2)NC(=O)[C@@H](NC(=O)[C@H](CC(N)=O)NC(=O)[C@H]2CCCN2C(=O)[C@H](CCCCN)NC(=O)[C@H](CO)NC(=O)[C@H](CCC(N)=O)NC(=O)[C@H](Cc2ccccc2)NC(C)=O)C(C)C)C(C)C)C(N)=O)C1=O (some centres unmarked) [JBT2317]
coagulation parameters [1]: restored coagulation parameters in Hem A blood | 24 h Human Plasma Stability | Mean Remaining [%] (FIGURE 78J): 23.77% | 24 h Mouse Plasma Stability | Mean Remaining [%] (FIGURE 78J): 15.95%

CCCCCC(=O)N[C@@H](Cc1ccccc1)C(=O)N[C@@H](CCC(N)=O)C(=O)N[C@@H](CO)C(=O)N[C@@H](CCCCN)C(=O)N1CCC[C@@H]1C(=O)N[C@@H](CSCNC(C)=O)C(=O)N[C@H](C(=O)N[C@@H](Cc1c[nH]cn1)C(=O)N[C@H](C(=O)N[C@@H](CC(=O)O)C(=O)N[C@H](C)C(=O)N[C@@H](Cc1ccc(O)cc1)C(=O)N[C@@H](Cc1ccccc1)C(=O)N[C@@H](CCC(=O)O)C(=O)N[C@@H](CCCNC(=N)N)C(=O)N[C@@H](CC(C)C)C(=O)NC(C)(C)C(=O)N[C@@H](C)C(=O)N[C@@H](CCCCN)C(=O)N[C@@H](CC(C)C)C(N)=O)C(C)(C)C)C(C)C [JBT2528, Hex-FQSKp-C(Acm)-VH-Tle-DaYFERL-Aib-AKL-NH2] (Hexanoyl-FQSK[dP]C(Acm)VH[Tle]D[dA]YFERL[Aib]AKL-NH2)
EC50 [1]: 11 nM

CCCCCC(=O)N[C@@H](Cc1ccccc1)C(=O)N[C@@H](CCC(N)=O)C(=O)N[C@@H](CO)C(=O)N[C@@H](CCCCN)C(=O)N1CCC[C@@H]1C(=O)N[C@@H](CSCNC(C)=O)C(=O)N[C@H](C(=O)N[C@@H](Cc1c[nH]cn1)C(=O)N[C@H](C(=O)N[C@@H](CC(=O)O)C(=O)N[C@H](C)C(=O)N[C@@H](Cc1ccc(O)cc1)C(=O)N[C@@H](Cc1ccccc1)C(=O)N[C@@H](CCC(=O)O)C(=O)N[C@@H](CCCNC(=N)N)C(=O)N[C@@H](CC(C)C)C(=O)NC(C)(C)C(=O)N[C@@H](C)C(=O)N[C@@H](CCCCN)C(=O)N[C@@H](CC(C)C)C(=O)N[C@@H](CSC1CC(=O)N(CC)C1=O)C(N)=O)C(C)(C)C)C(C)C (some centres unmarked) [JBT00002537, Hex-FQSKp-Cys(Acm)-VH-Tle-DaYFERL-Aib-AKLC(NEM)- NH2] (Hexanoyl-FQSK[dP]C(Acm)VH[Tle]D[dA]YFERL[Aib]AKLC(Succinimide(1-Et,3-yl))-NH2)
24 h Human Plasma Stability | Mean Remaining [%] (FIGURE 78Z): 106.65% | IC50 (TFPI [2]): 7.13 nM

CCCCCC(=O)N[C@@H](Cc1ccccc1)C(=O)N[C@@H](CCC(N)=O)C(=O)N[C@@H](CO)C(=O)N[C@@H](CCCCN)C(=O)N1CCC[C@@H]1C(=O)N[C@@H](CO)C(=O)N[C@H](C(=O)N[C@@H](Cc1c[nH]cn1)C(=O)N[C@H](C(=O)N[C@@H](CC(=O)O)C(=O)N[C@H](C)C(=O)N[C@@H](Cc1ccc(O)cc1)C(=O)N[C@@H](Cc1ccccc1)C(=O)N[C@@H](CCC(=O)O)C(=O)N[C@@H](CCCNC(=N)N)C(=O)N[C@@H](CC(C)C)C(=O)NC(C)(C)C(=O)N[C@@H](C)C(=O)N[C@@H](CCCCN)C(=O)N[C@@H](CC(C)C)C(=O)N[C@@H](CSC1CC(=O)N(CC)C1=O)C(N)=O)C(C)(C)C)C(C)C (some centres unmarked) [JBT00002546, Hex-FQSKpSVH-Tle-DaYFERL-Aib-AKLC(NEM)-NH2] (Hexanoyl-FQSK[dP]SVH[Tle]D[dA]YFERL[Aib]AKLC(Succinimide(1-Et,3-yl))-NH2)
24 h Human Plasma Stability | Mean Remaining [%] (FIGURE 78AA): 87.66% | 24 h Mouse Plasma Stability | Mean Remaining [%] (FIGURE 78AA): 72.98%

CCCCCC(=O)N[C@@H](Cc1ccccc1)C(=O)N[C@@H](CCC(N)=O)C(=O)N[C@@H](CO)C(=O)N[C@@H](CCCCN)C(=O)N1CCC[C@@H]1C(=O)N[C@@H](CO)C(=O)N[C@H](C(=O)N[C@@H](Cc1c[nH]cn1)C(=O)N[C@H](C(=O)N[C@@H](CC(=O)O)C(=O)N[C@H](C)C(=O)N[C@@H](Cc1ccc(O)cc1)C(=O)N[C@@H](Cc1ccccc1)C(=O)N[C@@H](CCC(=O)O)C(=O)N[C@@H](CCCNC(=N)N)C(=O)N[C@@H](CC(C)C)C(=O)NC(C)(C)C(=O)N[C@@H](C)C(=O)N[C@@H](CCCCN)C(=O)N[C@@H](CC(C)C)C(N)=O)C(C)(C)C)C(C)C [JBT00002548, Hex-FQSKpSVH-Tle-DaYFERL-Aib-AKL-NH2]
24 h Human Plasma Stability | Mean Remaining [%] (FIGURE 78AA): 98.85% | 24 h Mouse Plasma Stability | Mean Remaining [%] (FIGURE 78AA): 50.25%

(Hex-FQSKp-Cys(Acm)-VH-Tle-DaYFERL-Aib-AKLC-NH2)- Mal-mPEG23 [JBT00002544]
24 h Human Plasma Stability | Mean Remaining [%] (FIGURE 78AA): 54.00% | 24 h Mouse Plasma Stability | Mean Remaining [%] (FIGURE 78AA): 46.20%

Ac-FQSKpNVHVDGYFERL-Aib-AKLC(ME-50MA)-NH2 [JBT00002325]
24 h Human Plasma Stability | Mean Remaining [%] (FIGURE 78J): 67.60% | 24 h Mouse Plasma Stability | Mean Remaining [%] (FIGURE 78J): 44.70%

Ac-FQSKpNVHVDGYFERL-Aib-AKLC(ME-120MA)-NH2 [JBT00002326]
24 h Human Plasma Stability | Mean Remaining [%] (FIGURE 78J): 58.70% | 24 h Mouse Plasma Stability | Mean Remaining [%] (FIGURE 78J): 57.20%

Ac-FQSKpNVHVDGYFERL-Aib-AKLC(ME-200MA0B)-NH2 [JBT00002327]
24 h Human Plasma Stability | Mean Remaining [%] (FIGURE 78K): 76.50% | 24 h Mouse Plasma Stability | Mean Remaining [%] (FIGURE 78K): 65.50%

Ac-FQSKpNVHVDGYFERL-Aib-AKLC(ME-300MA)-NH2 [JBT00002328]
24 h Human Plasma Stability | Mean Remaining [%] (FIGURE 78K): 68.40% | 24 h Mouse Plasma Stability | Mean Remaining [%] (FIGURE 78K): 51.00%

Ac-KKHVSKRSKEMALARLYYKTSKK-NH2 (SEQ ID NO: 2302) [JBT0231]
Progress Curves of Inhibition of FXa | % Inhibit ([…]) (TFPI [3]): 0%

Ac-KKLHVSKRSKEMALARLYYKTSKK-NH2 (SEQ ID NO: 2307) [JBT0236]
Progress Curves of Inhibition of FXa | % Inhibit ([…]) (TFPI [3]): 0%

Ac-KKQLHVSKRSKEMALARLYYKTKK-NH2 (SEQ ID NO: 2306) [JBT0235]
Progress Curves of Inhibition of FXa | % Inhibit ([…]) (TFPI [3]): 0%

Ac-KKVQLHVSKRSKEMALARLYYKTSKK- NH2 (SEQ ID NO: 2301) (Ac-KKVQLHVSKRSKEMALARLYYKTSKK-NH2) [JBT0230]
Progress Curves of Inhibition of FXa | % Inhibit ([…]) (TFPI [3]): 0%
